Each structure is given as a SMILES string. Where “and” joins values, the source holds several entries; their conditions need not be identical. Equal values may be shown once.

The subject of experiment [1] is T1, Plasmodium falciparum Dd2-attB-ScDHODH (transgenic line expressing yeast DHODH), asexual blood stages.
T1 construct: Dd2-attB-ScDHODH, the transgenic line that expresses yeast DHODH
In words: organism not typed. Set-up: replicate k of 3 (each line is one of three independent assays; the three lines of one compound and parasite line follow each other). As to the method:
(§1) The overexpression of the fumarate-dependent yeast DHODH confers resistance to compounds that inhibit the parasite mETC, or the parasite DHODH enzyme that depends on ubiquinone provided by the parasite mETC. Assays were performed in three independent assays on a subset of compounds, and differences between the Dd2-attB parental line and the ScDHODH transgenic line were analyzed using two-sided Student’s t-tests.

Experiment [2] relates to T2, Plasmodium falciparum Dd2-attB (parental line), asexual blood stages.
T2 construct: Dd2-attB, the isogenic parental line
In words: microbe, parasite or virus in culture. Set-up: replicate k of 3 (each line is one of three independent assays; the three lines of one compound and parasite line follow each other). As to conditions: n = 1; for AC50: Plasmodium falciparum, DD2, 72 h, read-out: Individual replicates / Log AC50 (converted); for Individual replicates / Log AC50 (M): 72 h. As to the method: as §1

Where [3] appears, read: 72 h; n = 1; read-out: Individual replicates / Log AC50 (converted).

On to `CC(C)c1c(-c2cnn(C(C)(C)C)c2)[nH]c2c(C#N)cnn2c1=O` [NCGC00488278-02], for which the “Individual replicates / Log AC50 (M)” value in experiment [1] (72 h, n = 1) is on record as -4.7986 Log AC50 (M). Moreover, the AC50 in experiment [1] (setting [3]) was 10 µM; in experiment [2] it was 15.9 µM.

On to `O=C(O)c1ccc(O)c2ncc(N3CCCN(C4CCCC4)CC3)cc12` [NCGC00241765-01], for which the “Individual replicates / Log AC50 (M)” value in experiment [1] (72 h, n = 1) was -4.7486 Log AC50 (M) and -4.6986 Log AC50 (M); in experiment [2], -4.7486 Log AC50 (M). Moreover, the AC50 in experiment [1] (setting [3]) is 20 µM; in experiment [2], 17.8 µM.

On to `Oc1ccc(CNc2ccc(C(F)(F)F)cc2F)c2cccnc12` [NCGC00184889-01], for which the AC50 is 17.8 µM in experiment [1] (setting [3]) and 20 µM in experiment [2].

In the case of `O=C(NCCN1CCOCC1)c1cccc(-c2cc(O)c3ncccc3c2)c1` [NCGC00244535-01], in experiment [1] (72 h, n = 1), the “Individual replicates / Log AC50 (M)” value is -5.1986 Log AC50 (M) and -4.7986 Log AC50 (M). Further, in experiment [2], the “Individual replicates / Log AC50 (M)” value was -4.8986 Log AC50 (M) and -5.0986 Log AC50 (M); the AC50 was 6.33 µM.

On to `CN(C)CCCCNC(=O)c1cccc(-c2cc(O)c3ncccc3c2)c1` [NCGC00244528-01], for which the “Individual replicates / Log AC50 (M)” value is -4.7486 Log AC50 (M) in experiment [1] (72 h, n = 1); -4.8986 Log AC50 (M) and -4.8486 Log AC50 (M) in experiment [2]. The results for the AC50 in experiment [1] (setting [3]) and in experiment [2] were 15.9 µM and 17.8 µM, respectively.

With `COC(=O)c1ccc(O)c2ncc(N3CCOCC3)cc12` [NCGC00262492-01], the “Individual replicates / Log AC50 (M)” value was -5.2986 Log AC50 (M) in experiment [1] (72 h, n = 1); -5.3486 Log AC50 (M) and -5.3986 Log AC50 (M) in experiment [2]. The AC50 in experiment [1] (setting [3]) and in experiment [2] was 5.64 µM throughout.

Regarding `Cc1cccc(CN2CCCn3nc(C)c(-c4ccccc4Oc4ccccc4)c32)n1` [NCGC00499720-01], the “Individual replicates / Log AC50 (M)” value in experiment [1] (72 h, n = 1) is reported as -4.7986 Log AC50 (M); in experiment [2], -4.7486 Log AC50 (M). The AC50 in experiment [1] (setting [3]) was 15.9 µM; in experiment [2] it was 20 µM.

On to `CC(=O)Nc1cccc(-c2csc(Nc3cc(C)ccn3)n2)c1` [NCGC00357426-01], for which the “Individual replicates / Log AC50 (M)” value in experiment [1] (72 h, n = 1) was -4.8486 Log AC50 (M); in experiment [2] it was -4.8486 Log AC50 (M) (2×) and -4.7986 Log AC50 (M).

On to `O=C(O)c1ccc(O)c2ncc(-c3ccc(C(=O)N4CCNCC4)cc3)cc12` [NCGC00189508-01], for which the “Individual replicates / Log AC50 (M)” value was -4.7486 Log AC50 (M) in experiment [1] (72 h, n = 1); -4.7486 Log AC50 (M) and -4.7986 Log AC50 (M) in experiment [2]. The AC50 in experiment [1] (setting [3]) and in experiment [2] was 15.9 µM throughout.

Take `Oc1ccc(CNc2ccc(F)cc2Cl)c2cccnc12` [NCGC00184893-01]: the “Individual replicates / Log AC50 (M)” value is -4.7986 Log AC50 (M) in experiment [1] (72 h, n = 1); -4.7986 Log AC50 (M) and -4.8486 Log AC50 (M) in experiment [2]. For the same molecule, the results for the AC50 in experiment [1] (setting [3]) and in experiment [2] were 14.2 µM and 15.9 µM, respectively.

On to `Oc1ccc(CNCc2ccc3c(c2)OCO3)c2cccnc12` [NCGC00183368-01], for which the “Individual replicates / Log AC50 (M)” value in experiment [1] (72 h, n = 1) was -4.7486 Log AC50 (M); in experiment [2] it was -4.7986 Log AC50 (M). In addition, the AC50 in experiment [1] (setting [3]) and in experiment [2] was 15.9 µM each time.

Turning to `CCOc1ccc(-c2[nH]c3c(C#N)cnn3c2NC2CCCC2)cc1` [NCGC00120007-02], the “Individual replicates / Log AC50 (M)” value in experiment [1] (72 h, n = 1) is reported as -4.8486 Log AC50 (M); in experiment [2], -4.7486 Log AC50 (M). Further, the AC50 in experiment [1] (setting [3]) was 17.8 µM; in experiment [2], 14.2 µM.

As for `CCOC(=O)c1ccnc2cc(C(OCCN3CCCCC3)c3ccccc3Cl)sc12` (centres unmarked) [NCGC00481512-01], the “Individual replicates / Log AC50 (M)” value is -5.1986 Log AC50 (M) and -5.0986 Log AC50 (M) in experiment [1] (72 h, n = 1); -5.1486 Log AC50 (M) in experiment [2]. Also, the AC50 is 7.97 µM in experiment [1] (setting [3]) and 5.64 µM in experiment [2].

Consider `CCCCOC(=O)c1ccnc2cc(C(OCCN3CCCCC3)c3ccccc3Cl)sc12` (centres unmarked) [NCGC00481505-01], for which the “Individual replicates / Log AC50 (M)” value is -5.0486 Log AC50 (M) and -5.1486 Log AC50 (M) in experiment [1] (72 h, n = 1); -5.2486 Log AC50 (M) and -5.0986 Log AC50 (M) in experiment [2]. Besides, the AC50 in experiment [1] (setting [3]) was 14.2 µM; in experiment [2], 8.94 µM.

In the case of `C/C=C(\C#N)C(=O)N1CCCN(c2cc(NCCC(=O)OC)nc(-c3ccccn3)n2)CC1` [NCGC00420778-01], the figures for the AC50 in experiment [1] (setting [3]) and in experiment [2] were 14.2 µM and 15.9 µM, respectively.

As for `Cc1nn2c(c1-c1ccccc1Oc1ccccc1)N(CCCc1ccccc1)CCC2` [NCGC00499718-01], the “Individual replicates / Log AC50 (M)” value in experiment [1] (72 h; n = 1) and in experiment [2] was -4.7986 Log AC50 (M) each time. In addition, the AC50 in experiment [1] (setting [3]) and in experiment [2] was 15.9 µM each time.

The values above are taken from paper PMC7822874, “Chemoprotective antimalarials identified through quantitative high-throughput screening of Plasmodium blood and liver stage parasites” (Scientific Reports, 2021).
